From patent US10450378B2, “Cytotoxic and anti-mitotic compounds, and methods of using the same” (priority 2014, dated 2019) come the findings set out here.

Data set [1] relates to Human T-cell leukemia cell line Jurkat. The data set is described as follows: Cellular cytotoxicity of compounds of Formula I, Example 3.1. As to conditions: for EC50: Homo sapiens, Jurkat, read-out: EC50 (nM) Jurkat. The class given is cell-based. The protocol:
(§1) Compounds were tested on one or more of Human T-cell leukemia cell line Jurkat (ATCC: TIB-152); Human breast cancer cell lines HCC1954 (ATCC: CRL-2338) and JIMT-1 (DSMZ: ACC 589); Human Pancreatic cell line BxPC-3 (ATCC: CRL.1687), Human ovarian adenocarcinoma cell line SK-OV-3 (ATCC: HTB-77) and Human gastric carcinoma cell line NCI-N87 (ATCC: CRL. 5822); to assess their cytotoxicity.
(§2) Briefly, cells were obtained from commercial sources and cultured as described in the product sheet provided. Cells were removed from their culture vessels and the resulting cell suspension was counted using a ViCell (Beckman Coulter), then seeded at 25,000 cells/mL (2,500 cells/well) in Costar 3904 black walled, flat bottomed 96-well plates (cells were seeded in the inner 60 wells of 96-well TC plates, and outer edge wells filled with water). Adherent cell lines were incubated for one night at 37° C./5% CO2 atmosphere to allow the cells to attach to the microtiter plate surface, while suspension (Jurkat) cells were plated immediately before use. Cytotoxins were dissolved and serially diluted in dimethyl sulfoxide and then the solutions were added to complete growth medium at five-times the desired maximum final concentration. The cytotoxins were then titrated in growth medium, normally 1:3, over eight steps. A control with no test article present (growth medium alone) was included on each microtiter plate in sextuplicate. The prepared toxin titrations were added (25 μL/well) in triplicate to each cell line assayed. The cells and titrations were incubated at 37° C./5% CO2 for three nights (Jurkat) and five nights (all other cell lines). After the incubation, cell viability was measured using CellTiter-Glo® by adding 30 μL of prepared CellTiter-Glo® reagent to each assay well. The mixtures were incubated for at least twenty minutes in the dark prior to measuring emitted luminescence using a microplate luminometer (500 ms integration time). The collected relative luminescence units (RLU) were converted to % cytotoxicity using the growth medium alone control mentioned above (% Cytotoxicity=1-[well RLU/average medium alone control RLU]×100%).

The test system of data set [2] is Jurkat cell line. The data set is described as follows: Cytotoxicity of compounds of Formula I, Example 3 (CellTiter-Glo). The class given is cell-based, Human. Conditions: for EC50: Homo sapiens, 72 h. The protocol: (§3) Compounds were tested on Jurkat and HCC1954 cell lines to assess their cytotoxicity. Compounds were titrated 1:3 starting at various concentrations (30 nM to 1000 nM). Control cytotoxin HTI-286 (see, e.g., U.S. Pat. No. 7,579,323) was also titrated 1:3 across starting with a 30 nM concentration. Plates were incubated for 3 days. Cell viability was quantified using 30 μL/well of 1× CellTiter-Glo reagent.
(§4) Each cell line was grown in its respective growth medium until seeding day. Cells were removed from their culture vessels and the resulting cell suspension was counted using the ViCell. Cells were then diluted in their growth medium to 25000/mL such that 100 μL/well=2500 cells/well. Each cell line was seeded in the inner 60 wells of 96-well black walled TC plates, outer wells filled with water. HCC1954 were seeded a day prior to assay set up. Cytotoxins were diluted as described below a 5× dose-response of each compound was prepared using RPMI+10% FBS in a deep-well 96-well plate. This “master” dilution plate was used for each cell line. 25 μL of the 5× dose responses was spiked into each cell line in triplicate. The plates were returned to the incubator and were incubated for 3 nights. After the 3 nights, cell viability was quantified using 30 μL/well of 1× CellTiter-glo reagent. After at least 10 minutes of incubation, the luminescence was measured using the SpectraMax (500 ms integration).

Data set [3] relates to Human ovarian adenocarcinoma cell line SK-OV-3. The data set is described as follows: Cellular cytotoxicity of compounds of Formula I, Example 3.1. The class given is cell-based. Conditions: five nights, CellTiter-Glo, read-out: EC50 (nM) SKOV-3. The protocol: as §1, §2
Data set [4] concerns Human Pancreatic cell line BxPC-3. Described as above. The class given is cell-based. Conditions: five nights, CellTiter-Glo. The protocol: as §1, §2
The subject of data set [5] is Human breast cancer cell line HCC1954. The data set is described as above. The class given is cell-based. As to conditions: five nights, CellTiter-Glo, read-out: EC50 (nM) HCC-1954. The protocol:
as §1, §2

For data set [6], the system named is Human gastric carcinoma cell line NCI-N87. The data set is described as above. Conditions: five nights, CellTiter-Glo. The class given is cell-based. The protocol: as §1, §2
In data set [7] the test system is Human breast cancer cell line JIMT-1. The data set is described as above. The class given is cell-based. Conditions: five nights, CellTiter-Glo. The protocol: as §1, §2
For data set [8], the system named is Jurkat cells. The data set is described as follows: Cell cycle arrest assay. The class given is cell-based, Human. As to conditions: 50 nM, 24 h, propidium iodide. The protocol: Jurkat cells (ATCC), cultured in RMPI-1640 media supplemented with 10% FBS, were obtained in logarithmic growth. 1 million cells/ml were seeded into a 12-well tissue-culture treated plate in a 950 μL, volume. Cells were treated with Compound 5 in 50 μL of growth media such that the final concentration of Compound 5 was 50 nM, control cells were given 50 μL of growth media alone. Cells were incubated for 24 h at 37° C., 5% CO2 in a humidified incubator. Following incubation, cells were thoroughly resuspended and transferred to 5 mL FACS tubes, and stored on ice. Two washes were performed by spinning cells down in a swinging-bucket centrifuge at 450×g for 4 min, resuspending in 1 mL ice-cold PBS. Cells were fixed through the addition of 3 mL ice-cold 100% ethanol in a dropwise fashion under vortex, and immediately stored at 4° C. for 1 h. During the 1 h incubation, the following staining solution was prepared in ice-cold PBS: 10 μg/ml propidium iodide, 10 U/ml RNAse 1f, and 0.05% Triton X-100. Following the 1 h fixation incubation, ethanol was removed by spinning cells as described above, and washing twice in 1 mL ice-cold PBS. Cells were resuspended in 500 μL of the above-mentioned staining solution, and incubated at room temperature for 1 h. […] Histograms were generated using FCS Express, plotting # of events against fluorescence in FL-3.

In data set [9] the test system is HCC1954 cell line. The data set is described as follows: Cytotoxicity of compounds of Formula I, Example 3 (CellTiter-Glo). The class given is cell-based. As to conditions: Homo sapiens, 72 h, 3 days incubation. The protocol: as §3, §4
Where [10] appears, read: 3 days incubation, CellTiter-Glo, read-out: EC50.

Where two headings read alike, the source gives them in different places.

Take `CC[C@H](C)[C@@H]([C@@H](CC(=O)N1CCC[C@H]1[C@H](OC)[C@@H](C)C(=O)NS(=O)(=O)c1ccc(NC(=O)C(F)(F)F)cc1)OC)N(C)C(=O)[C@@H](NC(=O)[C@H](C(C)C)N(C)C)C(C)C` [Compound 4, (S)-2-((S)-2-(Dimethylamino)-3-methylbutanamido)-N-((3R,4S,5S)-3-methoxy-1-((S)-2-((1R,2R)-1-methoxy-2-methyl-3-oxo-3-(4-(2,2,2-trifluoroacetamido)phenylsulfonamido)propyl)pyrrolidin-1-yl)-5-methyl-1-oxoheptan-4-yl)-N,3-dimethylbutanamide]: the EC50 in [1] (three nights, CellTiter-Glo) worked out at 18.1 nM; in data set [2] (setting [10]), 18.1 nM.
Take `CC[C@H](C)[C@@H]([C@@H](CC(=O)N1CCC[C@H]1[C@H](OC)[C@@H](C)C(=O)NS(=O)(=O)c1ccc(N)cc1)OC)N(C)C(=O)[C@@H](NC(=O)[C@H](C(C)C)N(C)C)C(C)C` [Compound 5, (S)-N-((3R,4S,5S)-1-((S)-2-((1R,2R)-3-(4-Aminophenylsulfonamido)-1-methoxy-2-methyl-3-oxopropyl)pyrrolidin-1-yl)-3-methoxy-5-methyl-1-oxoheptan-4-yl)-2-((S)-2-(dimethylamino)-3-methylbutanamido)-N,3-dimethylbutanamide]: the EC50 was found to be 13.6 nM in data set [1] (three nights, CellTiter-Glo); 23.7 nM in data set [3]; 18.2 nM in data set [4]; 8.9 nM in [5]; 12 nM in [6]; 9.3 nM in [7]. Besides, the EC50 in data set [9] was 8.9 nM; in data set [2] (setting [10]) it was 16.8 nM. Also, the “Cell cycle phase (DNA content histograms)” value in [8] is recorded as “pronounced shift towards G2/M phase”.
As to `CC[C@H](C)[C@@H]([C@@H](CC(=O)N1CCC[C@H]1[C@H](OC)[C@@H](C)C(=O)NS(=O)(=O)Cc1ccc(NC(=O)C(F)(F)F)cc1)OC)N(C)C(=O)[C@@H](NC(=O)[C@H](C(C)C)N(C)C)C(C)C` [Compound 7, (S)-2-((S)-2-(Dimethylamino)-3-methylbutanamido)-N-((3R,4S,5S)-3-methoxy-1-((S)-2-((1R,2R)-1-methoxy-2-methyl-3-oxo-3-((4-(2,2,2-trifluoroacetamido)phenyl)methylsulfonamido)propyl)pyrrolidin-1-yl)-5-methyl-1-oxoheptan-4-yl)-N,3-dimethylbutanamide], the EC50 in data set [1] (three nights, CellTiter-Glo) turned out to be 29.9 nM; in [2] (setting [10]) it was 29.9 nM.
On to `CC[C@H](C)[C@@H]([C@@H](CC(=O)N1CCC[C@H]1[C@H](OC)[C@@H](C)C(=O)N[C@@H](Cc1ccccc1)C(=O)NS(=O)(=O)c1ccc(NC(=O)C(F)(F)F)cc1)OC)N(C)C(=O)[C@@H](NC(=O)[C@H](C(C)C)N(C)C)C(C)C` [Compound 10, (S)-2-((S)-2-(Dimethylamino)-3-methylbutanamido)-N-((3R,4S,5S)-3-methoxy-1-((S)-2-((1R,2R)-1-methoxy-2-methyl-3-oxo-3-((S)-1-oxo-3-phenyl-1-(4-(2,2,2-trifluoroacetamido)phenylsulfonamido)propan-2-ylamino)propyl)pyrrolidin-1-yl)-5-methyl-1-oxoheptan-4-yl)-N,3-dimethylbutanamide], for which the EC50 in data set [1] and in [2] was 45.3 nM each time.
As for `CC[C@H](C)[C@@H]([C@@H](CC(=O)N1CCC[C@H]1[C@H](OC)[C@@H](C)C(=O)N[C@@H](Cc1ccccc1)C(=O)NS(=O)(=O)c1ccc(N)cc1)OC)N(C)C(=O)[C@@H](NC(=O)[C@H](C(C)C)N(C)C)C(C)C` [Compound 11, (S)-N-((3R,4S,5S)-1-((S)-2-((1R,2R)-3-((S)-1-(4-Aminophenylsulfonamido)-1-oxo-3-phenylpropan-2-ylamino)-1-methoxy-2-methyl-3-oxopropyl)pyrrolidin-1-yl)-3-methoxy-5-methyl-1-oxoheptan-4-yl)-2-((S)-2-(dimethylamino)-3-methylbutanamido)-N,3-dimethylbutanamide], the EC50 in data set [1] (three nights, CellTiter-Glo) worked out at 52 nM; in data set [2] (setting [10]), 52 nM.
On to `CC[C@H](C)[C@@H]([C@@H](CC(=O)N1CCC[C@H]1[C@H](OC)[C@@H](C)C(=O)N[C@@H](Cc1ccccc1)C(=O)NS(=O)(=O)Cc1ccc(NC(=O)C(F)(F)F)cc1)OC)N(C)C(=O)[C@@H](NC(=O)[C@H](C(C)C)N(C)C)C(C)C` [Compound 13, (S)-2-((S)-2-(Dimethylamino)-3-methylbutanamido)-N-((3R,4S,5S)-3-methoxy-1-((S)-2-((1R,2R)-1-methoxy-2-methyl-3-oxo-3-((S)-1-oxo-3-phenyl-1-(4-(2,2,2-trifluoroacetamido)phenylmethylsulfonamido)propan-2-ylamino)propyl)pyrrolidin-1-yl)-5-methyl-1-oxoheptan-4-yl)-N,3-dimethylbutanamide], for which the EC50 in [1] and in [2] was 20.9 nM throughout.
On to `CN[C@H](C(=O)N[C@H](C(=O)N(C)[C@H](/C=C(\C)C(=O)O)C(C)C)C(C)(C)C)C(C)(C)c1ccccc1` [HTI-286, reference compound], for which the “Killing by control cytotoxin” value in [1] (stated for all cell lines of Example 3.1) is recorded as “successfully killed all cell lines at an expected concentration”; in data set [2] (titrated 1:3 starting with 30 nM), “successfully killed Jurkats at an expected concentration”.
